Measured values reported in ChEMBL document CHEMBL1130631, “Synthesis of benzo[c]quinolizin-3-ones: selective non-steroidal inhibitors of steroid 5 alpha-reductase 1” (Bioorg Med Chem Lett, 1998).
Each block holds one compound with its values, some of them ahead of it.

Columns and labels:
[1] = target: T1, 3-oxo-5-alpha-steroid 4-dehydrogenase 1 (Homo sapiens, UniProt P18405); experiment: Compound was evaluated for the inhibition of human Steroid 5-alpha-reductase type 1
T1 sequence (P18405 whole entry): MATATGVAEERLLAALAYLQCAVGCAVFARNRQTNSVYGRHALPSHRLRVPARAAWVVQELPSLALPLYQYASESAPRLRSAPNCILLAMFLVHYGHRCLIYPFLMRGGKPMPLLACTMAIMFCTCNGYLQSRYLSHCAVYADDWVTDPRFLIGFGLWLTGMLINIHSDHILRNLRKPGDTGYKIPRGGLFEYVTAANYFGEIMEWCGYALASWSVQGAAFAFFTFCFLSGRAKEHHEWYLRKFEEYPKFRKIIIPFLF

[2] = target: T2, 3-oxo-5-alpha-steroid 4-dehydrogenase 2 (Homo sapiens, UniProt P31213); experiment: Compound was evaluated for the inhibition of human Steroid 5-alpha-reductase type 2
T2 sequence (P31213 whole entry): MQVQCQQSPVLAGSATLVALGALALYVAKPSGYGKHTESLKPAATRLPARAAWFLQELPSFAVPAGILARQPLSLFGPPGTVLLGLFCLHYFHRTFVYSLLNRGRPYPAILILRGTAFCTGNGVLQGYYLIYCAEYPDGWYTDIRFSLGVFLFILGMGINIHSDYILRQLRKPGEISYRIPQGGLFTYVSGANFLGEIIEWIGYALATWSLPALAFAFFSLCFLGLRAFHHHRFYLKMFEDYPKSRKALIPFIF

[3] = target: T2, 3-oxo-5-alpha-steroid 4-dehydrogenase 2; experiment: Compound was evaluated for the inhibition of human Steroid 5-alpha-reductase type 2 from human prostate homogenates.; No inhibition; type: tissue-based, Prostate gland
[4] = target: T1, 3-oxo-5-alpha-steroid 4-dehydrogenase 1; experiment: Compound was evaluated for the inhibition of human Steroid 5-alpha-reductase type 1 from recombinant CHO cells; type: cell-based
[5] = target: T2, 3-oxo-5-alpha-steroid 4-dehydrogenase 2; experiment: Compound was evaluated for the inhibition of human Steroid 5-alpha-reductase type 2 from human prostate homogenates; No inhibition; type: tissue-based, Prostate gland
[6] = target: T2, 3-oxo-5-alpha-steroid 4-dehydrogenase 2; experiment: Compound was evaluated for the inhibition of human Steroid 5-alpha-reductase type 2 receptor from human prostate homogenates.; type: tissue-based, Prostate gland
[7] = target: T1, 3-oxo-5-alpha-steroid 4-dehydrogenase 1; experiment: Compound was evaluated for the inhibition of human Steroid 5-alpha-reductase type 1
[8] = target: T2, 3-oxo-5-alpha-steroid 4-dehydrogenase 2; experiment: Compound was evaluated for the inhibition of human Steroid 5-alpha-reductase type 2 receptor from human prostate homogenates; type: tissue-based, Prostate gland

SMILES: O=C1C=C2CCc3ccccc3N2CC1
IC50 [3]: Not Active
IC50 [4]: 298 nM

SMILES: CC(C)(C)NC(=O)[C@@H]1CCC2C3CCC4=CC(=O)CCN4C3=CC[C@@]21C (stereo not given in full)
IC50 [6]: 122 nM
IC50 [7]: 127 nM

SMILES: CC(C)(C)NC(=O)[C@H]1CC[C@H]2[C@@H]3CC[C@H]4NC(=O)C=C[C@]4(C)[C@H]3CC[C@]12C [FINASTERIDE]
IC50 [8]: 1.2 nM
IC50 [4]: 911 nM

More lines, now with the values ahead:

Ki [1]: 9 nM
Ki [2]: > 1000 nM
SMILES: CN1C(=O)CC[C@]2(C)c3ccc(Cl)cc3CCC12 (stereo not given in full)

IC50 [5]: Not Active
IC50 [4]: 5130 nM
SMILES: O=C1C=CN2c3ccccc3CCC2C1 (stereo not given)
